According to patent US20230382925A1, “MODULATORS OF CYSTIC FIBROSIS TRANSMEMBRANE CONDUCTANCE REGULATOR” (VERTEX PHARMACEUTICALS INCORPORATED, priority 2020, published 2023):
Where two headings read alike, the source gives them in different places.

Target: CFTR (Homo sapiens, UniProt P13569)
Assay: Membrane Potential Dye, Enteroid Assay B
Type: cell-based
Outline: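 Activity given as % of a triple-combination reference (1 μM and 3 μM correctors, 300 nM acute potentiator). Enteroids were preincubated 18-24 h with compound; chloride efflux then measured 15 min by methyl oxonol fluorescence after forskolin/IBMX/Compound III stimulation in chloride-free buffer containing CaCCinh-A01 and Chicago Sky Blue.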

[1] = Table 10, read-out: Ent. B EC50

Sequence of CFTR (P13569 with tags, fused parts or gaps DEL508-508): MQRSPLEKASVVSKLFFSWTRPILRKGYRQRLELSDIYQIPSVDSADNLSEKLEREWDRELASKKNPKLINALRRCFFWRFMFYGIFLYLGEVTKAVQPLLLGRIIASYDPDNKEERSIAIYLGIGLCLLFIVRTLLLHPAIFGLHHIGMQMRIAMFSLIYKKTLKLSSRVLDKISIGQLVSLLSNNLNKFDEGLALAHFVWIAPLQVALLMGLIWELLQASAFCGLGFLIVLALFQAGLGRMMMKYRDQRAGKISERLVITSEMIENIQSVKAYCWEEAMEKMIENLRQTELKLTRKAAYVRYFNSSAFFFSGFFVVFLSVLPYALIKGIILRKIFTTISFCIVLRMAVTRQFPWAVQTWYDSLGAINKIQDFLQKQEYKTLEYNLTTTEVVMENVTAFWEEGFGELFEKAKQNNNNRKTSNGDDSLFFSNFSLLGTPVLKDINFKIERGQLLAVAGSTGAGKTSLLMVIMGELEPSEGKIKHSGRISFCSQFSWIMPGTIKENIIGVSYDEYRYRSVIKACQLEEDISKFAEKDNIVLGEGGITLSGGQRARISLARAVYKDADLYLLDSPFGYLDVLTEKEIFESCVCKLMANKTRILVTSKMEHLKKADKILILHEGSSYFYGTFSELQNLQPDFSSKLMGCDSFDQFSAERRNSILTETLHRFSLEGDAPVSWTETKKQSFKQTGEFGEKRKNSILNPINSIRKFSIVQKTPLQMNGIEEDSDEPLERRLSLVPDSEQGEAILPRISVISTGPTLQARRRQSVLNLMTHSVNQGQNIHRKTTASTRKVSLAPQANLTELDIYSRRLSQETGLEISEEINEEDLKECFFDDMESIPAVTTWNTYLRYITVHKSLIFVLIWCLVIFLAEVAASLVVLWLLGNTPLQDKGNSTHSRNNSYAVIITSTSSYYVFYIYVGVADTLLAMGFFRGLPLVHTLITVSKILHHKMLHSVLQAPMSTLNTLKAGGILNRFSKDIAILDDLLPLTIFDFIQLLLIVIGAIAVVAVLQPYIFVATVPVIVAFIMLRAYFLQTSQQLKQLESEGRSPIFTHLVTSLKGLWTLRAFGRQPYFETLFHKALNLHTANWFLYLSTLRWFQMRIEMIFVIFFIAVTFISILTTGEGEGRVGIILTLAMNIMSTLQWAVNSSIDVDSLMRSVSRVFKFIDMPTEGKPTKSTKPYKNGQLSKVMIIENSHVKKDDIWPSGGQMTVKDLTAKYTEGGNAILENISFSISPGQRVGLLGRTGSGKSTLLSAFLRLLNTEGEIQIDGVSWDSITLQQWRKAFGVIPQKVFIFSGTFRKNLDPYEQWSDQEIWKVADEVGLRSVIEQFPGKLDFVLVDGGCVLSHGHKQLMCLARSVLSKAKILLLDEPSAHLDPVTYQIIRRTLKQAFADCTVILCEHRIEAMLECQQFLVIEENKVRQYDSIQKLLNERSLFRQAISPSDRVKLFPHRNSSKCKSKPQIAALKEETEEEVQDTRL

| SMILES | Ent. B Max Activity (%) (Table 10) | EC50 [1] [nM] | Ent. B Max Activity (%) (Table 9) | EC50 (Table 9, read-out: Ent. B EC50) [nM] | also measured |
| --- | --- | --- | --- | --- | --- |
| [H][C@]1(N2C(=O)c3cccc(c3)S(=O)(=O)Nc3nc(cc(-c4c(C)cccc4C)n3)OC[C@H]2CC(C)(C)C)C[C@@]2(C[C@H](NC(=O)OC3CCC3)C2)C1 (stereo in doubt) [Compound 355] | ++ (++ is 30-60%) | < 1000 | – | – | – |
| [H][C@]1(N2C(=O)c3cccc(c3)S(=O)(=O)Nc3nc(cc(-c4c(C)cccc4C)n3)OC[C@H]2CC(C)(C)C)C[C@@]2(C[C@H](NC(=O)OC3CC3)C2)C1 (stereo in doubt) [Compound 356] | +++ (+++ is >60%) | < 1000 | – | – | – |
| Cc1cccc(C)c1-c1cc2nc(n1)NS(=O)(=O)c1cccc(c1)C(=O)N([C@H]1C[C@@H](NC34CC(CO)(C3)C4)C1)[C@H](CC(C)C)CO2 (stereo in doubt) [Compound 358] | +++ (+++ is >60%) | < 1000 | – | – | – |
| Cc1cccc(C)c1-c1cc2nc(n1)NS(=O)(=O)c1cccc(c1)C(=O)N([C@H]1C[C@@H](OC(=O)Nc3ccccc3)C1)[C@H](CC(C)C)CO2 (stereo in doubt) [Compound 360] | +++ (+++ is >60%) | < 1000 | – | – | – |
| CNC(=O)O[C@H]1C[C@@H](N2C(=O)c3cccc(c3)S(=O)(=O)Nc3nc(cc(-c4c(C)cccc4C)n3)OC[C@H]2CC(C)C)C1 (stereo in doubt) [Compound 361] | ++ (++ is 30-60%) | < 1000 | – | – | – |
| Cc1cccc(C)c1-c1cc2nc(n1)NS(=O)(=O)c1cccc(c1)C(=O)N([C@H]1C[C@H](OC(=O)NCc3ccccc3)C1)[C@H](CC(C)C)CO2 (stereo in doubt) [Compound 362] | ++ (++ is 30-60%) | < 1000 | – | – | – |
| Cc1cccc(C)c1-c1cc2nc(n1)NS(=O)(=O)c1cccc(c1)C(=O)N([C@H]1C[C@H](OC(=O)NCC3CCCCC3)C1)[C@H](CC(C)C)CO2 (stereo in doubt) [Compound 363] | ++ (++ is 30-60%) | < 1000 | – | – | – |
| COCCNC(=O)O[C@H]1C[C@H](N2C(=O)c3cccc(c3)S(=O)(=O)Nc3nc(cc(-c4c(C)cccc4C)n3)OC[C@H]2CC(C)C)C1 (stereo in doubt) [Compound 364] | +++ (+++ is >60%) | < 1000 | – | – | – |
| Cc1cccc(C)c1-c1cc2nc(n1)NS(=O)(=O)c1cccc(c1)C(=O)N([C@H]1C[C@@H](N3C[C@@H](O)CC3=O)C1)[C@H](CC(C)C)CO2 (stereo in doubt) [Compound 370] | ++ (++ is 30-60%) | < 1000 | – | – | – |
| Cc1cccc(C)c1-c1cc2nc(n1)NS(=O)(=O)c1cccc(c1)C(=O)N(C1CC(N[C@H]3CC[C@H](O)CC3)C1)[C@H](CC(C)C)CO2 (stereo in doubt) [Compound 372] | – | – | +++ (+++ is >60%) | < 1000 | – |
| COCCCN(C)[C@H]1C[C@@H](N2C(=O)c3cccc(c3)S(=O)(=O)Nc3nc(cc(-c4c(C)cccc4C)n3)OC[C@H]2CC(C)C)C1 (stereo in doubt) [Compound 379] | – | – | +++ (+++ is >60%) | < 1000 | – |
| Cc1cccc(C)c1-c1cc2nc(n1)NS(=O)(=O)c1cccc(c1)C(=O)N(C1CC3(C1)CC(O)(CC(C)C)C3)[C@H](CC(C)(C)C)CO2 (stereo in doubt) [Compound 404] | +++ (+++ is >60%) | < 1000 | – | – | – |
| Cc1cccc(C)c1-c1cc2nc(n1)NS(=O)(=O)c1cccc(c1)C(=O)N(C1CC3(C1)CC(O)(CC(C)C)C3)[C@H](CC(C)(C)C)CO2 (stereo in doubt) [Compound 405] | +++ (+++ is >60%) | < 1000 | – | – | – |
| Cc1cccc(C)c1-c1cc2nc(n1)NS(=O)(=O)c1cccc(n1)C(=O)N([C@H]1C[C@@H](C(C)(C)O)C1)[C@H](CC(C)(C)C)CO2 (stereo in doubt) [Compound 411] | +++ (+++ is >60%) | < 1000 | – | – | – |
| [H][C@]1(N2C(=O)c3cccc(c3)S(=O)(=O)Nc3nc(cc(-c4c(C)cccc4C)n3)OC[C@H]2CC(C)C)C[C@@]2(C[C@H](C(C)(C)O)C2)C1 (stereo in doubt) [Compound 412] | +++ (+++ is >60%) | < 1000 | – | – | – |
| COC1CC(N2C(=O)c3cccc(c3)S(=O)(=O)Nc3nc(cc(-c4c(C)cccc4C)n3)OC[C@H]2CC2(C(F)(F)F)CC2)C1 (stereo in doubt) [Compound 465] | – | – | – | – | Ent. B Max Activity (%): +++ (+++ is >60%); EC50 (read-out: Ent. B EC50): < 1000 nM |
| COC1CC(N2C(=O)c3cccc(c3)S(=O)(=O)Nc3nc(cc(-c4c(C)cccc4C)n3)OC[C@H]2CC2(C(F)(F)F)CC2)C1 (stereo in doubt) [Compound 466] | – | – | – | – | Ent. B Max Activity (%): +++ (+++ is >60%); EC50 (read-out: Ent. B EC50): < 1000 nM |
| Cc1cccc(CO)c1-c1cc2nc(n1)NS(=O)(=O)c1cccc(c1)C(=O)N(C1CC3(CC3)C1)[C@H](CC(C)C)CO2 [Compound 2, (11R)-6-[2-(Hydroxymethyl)-6-methyl-phenyl]-11-isobutyl-2,2-dioxo-12-spiro[2.3]hexan-5-yl-9-oxa-2λ^6-thia-3,5,12,19-tetrazatricyclo[12.3.1.14,8]nonadeca-1(18),4(19),5,7,14,16-hexaen-13-one] | ++ (++ is 30-60%) | < 1000 | – | – | – |
| Cc1cccc(C)c1-c1cc2nc(n1)NS(=O)(=O)c1cccc(c1)C(=O)N(C1CC3(CCN(C4COC4)CC3)C1)[C@H](CC(C)C)CO2 [Compound 24, (11R)-6-(2,6-Dimethylphenyl)-11-isobutyl-12-[7-(oxetan-3-yl)-7-azaspiro[3.5]nonan-2-yl]-2,2-dioxo-9-oxa-2λ^6-thia-3,5,12,19-tetrazatricyclo[12.3.1.14,8]nonadeca-1(18),4(19),5,7,14,16-hexaen-13-one] | – | – | +++ (+++ is >60%) | < 1000 | – |

The next lines start with results.

| Ent. B Max Activity (%) (Table 10) | EC50 [1] [nM] | Ent. B Max Activity (%) (Table 9) | EC50 (Table 9, read-out: Ent. B EC50) [nM] | SMILES | also measured |
| --- | --- | --- | --- | --- | --- |
| +++ (+++ is >60%) | < 1000 | – | – | [H][C@]1(N2C(=O)c3cccc(c3)S(=O)(=O)Nc3nc(cc(-c4c(C)cccc4C)n3)OC[C@H]2CC(C)C)C[C@@]2(C[C@H](C(C)(C)O)C2)C1 (stereo in doubt) [Compound 413] | – |
| – | – | +++ (+++ is >60%) | < 1000 | Cc1cccc(C)c1-c1cc2nc(n1)NS(=O)(=O)c1cccc(c1)C(=O)N(C1CC(NC(=O)C(C)C)C1)[C@H](CC(C)(C)C)CO2 (stereo in doubt) [Compound 445] | – |
| – | – | +++ (+++ is >60%) | < 1000 | CCC(=O)NC1CC(N2C(=O)c3cccc(c3)S(=O)(=O)Nc3nc(cc(-c4c(C)cccc4C)n3)OC[C@H]2CC(C)(C)C)C1 (stereo in doubt) [Compound 446] | – |
| – | – | +++ (+++ is >60%) | < 1000 | CCC(=O)NC1CC(N2C(=O)c3cccc(c3)S(=O)(=O)Nc3nc(cc(-c4c(C)cccc4C)n3)OC[C@H]2CC(C)(C)C)C1 (stereo in doubt) [Compound 447] | – |
| – | – | +++ (+++ is >60%) | < 1000 | CC(=O)NC1CC(N2C(=O)c3cccc(c3)S(=O)(=O)Nc3nc(cc(-c4c(C)cccc4C)n3)OC[C@H]2CC(C)(C)C)C1 (stereo in doubt) [Compound 449] | – |
| – | – | +++ (+++ is >60%) | < 1000 | Cc1cccc(C)c1-c1cc2nc(n1)NS(=O)(=O)c1cccc(c1)C(=O)N(C1CC(NC(=O)OC(C)C)C1)[C@H](CC(C)(C)C)CO2 (stereo in doubt) [Compound 450] | – |
| – | – | +++ (+++ is >60%) | < 1000 | Cc1cccc(C)c1-c1cc2nc(n1)NS(=O)(=O)c1cccc(c1)C(=O)N(C1CC(NC(=O)OC(C)C)C1)[C@H](CC(C)(C)C)CO2 (stereo in doubt) [Compound 451] | – |
